Test results from patent publication EP4748847A1, “PEPTIDE COMPLEX HAVING VEGFR -2 AGONIST ACTIVITY” (Peptidream Inc, priority 2023, dated 2025).
*1 amine or outer side, *2 acyl side, *3 side chain or, on linkers, in order; H or OH if unused. Where a SMILES comes first, the peptide text is derived from it. Bridges are numbered along the chain shown (N, C = ends). Roman numbers before positions name the chains, in order. [ ]: non-standard residue; d: D form. The star is where a group is joined. CO(CH2)2(OCH2CH2)17CO = O=C(CCOCCOCCOCCOCCOCCOCCOCCOCCOCCOCCOCCOCCOCCOCCOCCOCCOCCC(=O)[*:2])[*:1]; Phe(4-guanidino) = N=C(N)Nc1ccc(C[C@H](N)C(=O)O)cc1; hTyr = N[C@@H](CCc1ccc(O)cc1)C(=O)O; h4Pal = N[C@@H](CCc1ccncc1)C(=O)O; Chg = N[C@H](C(=O)O)C1CCCCC1; Tle = CC(C)(C)[C@H](N)C(=O)O; Carboxymethyl = O=C(O)C*

Molecular target: T1, VEGFR-2 (Homo sapiens, UniProt P35968)
T1 construct: endogenous in cells; host or cells: HUVEC
T1 sequence (P35968 20-1356): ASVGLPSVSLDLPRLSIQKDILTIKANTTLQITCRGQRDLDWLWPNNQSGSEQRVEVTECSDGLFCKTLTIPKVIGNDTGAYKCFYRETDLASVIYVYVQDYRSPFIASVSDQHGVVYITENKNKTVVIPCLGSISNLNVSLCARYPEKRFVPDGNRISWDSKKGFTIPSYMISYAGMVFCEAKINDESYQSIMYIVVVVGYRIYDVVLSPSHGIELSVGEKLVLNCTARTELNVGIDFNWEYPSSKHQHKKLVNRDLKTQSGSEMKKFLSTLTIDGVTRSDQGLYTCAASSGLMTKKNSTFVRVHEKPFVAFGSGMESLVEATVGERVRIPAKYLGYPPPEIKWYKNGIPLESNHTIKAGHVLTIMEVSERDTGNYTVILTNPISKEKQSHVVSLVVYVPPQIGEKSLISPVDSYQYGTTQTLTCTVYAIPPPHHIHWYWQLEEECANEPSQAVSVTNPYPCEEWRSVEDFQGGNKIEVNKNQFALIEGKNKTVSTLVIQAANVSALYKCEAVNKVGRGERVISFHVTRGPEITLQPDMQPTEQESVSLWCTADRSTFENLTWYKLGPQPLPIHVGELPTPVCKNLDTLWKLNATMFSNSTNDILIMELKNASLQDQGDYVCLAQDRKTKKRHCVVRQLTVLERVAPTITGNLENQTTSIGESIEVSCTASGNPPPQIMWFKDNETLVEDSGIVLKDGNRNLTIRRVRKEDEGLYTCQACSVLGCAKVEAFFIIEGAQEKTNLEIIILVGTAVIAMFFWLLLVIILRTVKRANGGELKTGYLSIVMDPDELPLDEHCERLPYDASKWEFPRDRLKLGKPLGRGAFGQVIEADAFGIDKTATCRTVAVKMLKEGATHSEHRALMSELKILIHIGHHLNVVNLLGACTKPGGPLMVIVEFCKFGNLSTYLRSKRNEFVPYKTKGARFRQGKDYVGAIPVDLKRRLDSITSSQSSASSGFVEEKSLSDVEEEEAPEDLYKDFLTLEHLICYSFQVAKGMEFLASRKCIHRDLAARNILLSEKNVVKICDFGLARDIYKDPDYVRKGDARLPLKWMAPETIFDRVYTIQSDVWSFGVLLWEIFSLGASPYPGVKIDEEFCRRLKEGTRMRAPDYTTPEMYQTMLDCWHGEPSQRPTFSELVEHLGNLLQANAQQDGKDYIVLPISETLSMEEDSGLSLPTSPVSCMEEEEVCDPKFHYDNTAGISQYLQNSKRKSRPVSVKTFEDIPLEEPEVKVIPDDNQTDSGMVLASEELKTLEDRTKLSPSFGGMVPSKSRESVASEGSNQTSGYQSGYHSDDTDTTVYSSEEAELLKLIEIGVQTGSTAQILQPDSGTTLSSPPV
Experiment: pVEGFR AlphaLISA assay (VEGFR-2 phosphorylation, p-Tyr1175) in HUVECs
Format: cell-based
Conditions: 10 minutes stimulation, % activity, maximum VEGF165a signal = 100%, unstimulated = 0%
Experimental: To evaluate the VEGFR-2 activation ability of the VEGFR-2 agonist peptides of the present invention, VEGFR-2 phosphorylation was verified. HUVECs were cultured using EGM™ -2 Endothelial Cell Growth Medium-2 BulletKit (LONZA; CC-3162). After detaching cells using Tryple (Thermo Fisher Scientific), they were seeded into a 96-well PDL-coated plate (Corning: 354461) at a density of 24,000 cells per well and cultured for 2 days. For starvation, the medium was replaced with EBM-2 medium (LONZA) containing 0.5% FBS (Thermo Fisher Scientific), 0.1% heparin (included with the above LONZA CC-3162), and 0.1% gentamicin (Nacalai), and the cells were cultured for 18 hours. Subsequently, Recombinant Human VEGF165a Protein (R&D Systems) or the peptide was added, and the cells were cultured in a CO2 incubator at 37°C. After 10 minutes of stimulation, cells were lysed using the Lysis Buffer included in the AlphaLISA SureFire Ultra VEGFR-2 (p-Tyr1175) Assay Kit (PerkinElmer) to lyse the cells. The procedure was performed according to the kit protocol, and signal detection was performed using a SpectraMax Paradigm multimode microplate reader (Molecular Devices). The obtained signals were analyzed using GraphPad Prism, and % activity was calculated with the maximum signal induced by VEGF165a set as 100% and the unstimulated control as 0%.
The VEGF165a concentration was evaluated at five points (0.08, 0.31, 1.25, 5, 20 nM) using 1/4-fold dilutions starting from 20 nM to determine the maximum value (100%). Peptide concentrations tested were: 3.2, 16, 80 nM for dimer structure number 1; 10, 100 nM for dimer structures numbers 2-41; and 1.25, 5, 20 nM for dimer structures numbers 42-57. […]
Peptides showing 50% or more activity at 10 nM were designated 2-A, those showing 50% or more activity at 100 nM were designated 2-B, and those showing 1% or more but less than 50% activity at 100 nM were designated 2-C.
Peptides showing 50% or more activity at 1.25 nM were designated 3-A, those showing 50% or more activity at 5 nM were designated 3-B, those showing 50% or more activity at 20 nM were designated 3-C, and those showing 1% or more but less than 50% activity at 20 nM were designated 3-D.

[1] = peptide 10, 100 nM (dimer structures 2-41)
[2] = peptide 1.25, 5, 20 nM (dimer structures 42-57)

| Compound | pVEGFR2 Assay Results [1] | pVEGFR2 Assay Results [2] |
| --- | --- | --- |
| CC(C)C[C@@H]1NC(=O)[C@H](CC(=O)O)NC(=O)[C@H](CC(=O)O)NC(=O)[C@H](CCCCNC(=O)CCOCCOCCOCCOCCOCCOCCOCCOCCOCCOCCOCCOCCOCCOCCOCCOCCOCCC(=O)NCCCC[C@@H]2NC(=O)[C@H](C(C)C)NC(=O)[C@H](CC(=O)O)NC(=O)[C@H](C3CCCCC3)NC(=O)[C@H](Cc3c[nH]c4ccccc34)NC(=O)[C@H](Cc3c[nH]c4ccccc34)NC(=O)CSC[C@@H](C(=O)NCC(N)=O)NC(=O)[C@H](CC(=O)O)NC(=O)[C@H](CCc3ccc(O)cc3)NC(=O)[C@H](Cc3ccccc3)NC(=O)[C@H](Cc3ccc(O)cc3)NC(=O)[C@H](CC(C)C)NC(=O)[C@H](CC(=O)O)NC(=O)[C@H](CC(=O)O)NC2=O)NC(=O)[C@H](C(C)C)NC(=O)[C@H](CC(=O)O)NC(=O)[C@H](C2CCCCC2)NC(=O)[C@H](Cc2c[nH]c3ccccc23)NC(=O)[C@H](Cc2c[nH]c3ccccc23)NC(=O)CSC[C@@H](C(=O)NCC(N)=O)NC(=O)[C@H](CC(=O)O)NC(=O)[C@H](CCc2ccc(O)cc2)NC(=O)[C@H](Cc2ccccc2)NC(=O)[C@H](Cc2ccc(O)cc2)NC1=O [compound 25] (I: {CH2CO}-WW[Chg]DVKDDLYF[hTyr]DCG-NH2 / II: {CH2CO}-WW[Chg]DVKDDLYF[hTyr]DCG-NH2; linker I:6-II:6 via CO(CH2)2(OCH2CH2)17CO; thioether I:N-I:14, II:N-II:14) | 2-C (1% or more but less than 50% activity at 100 nM) |  |
| CC(C)C[C@@H]1NC(=O)[C@H](CC(=O)O)NC(=O)[C@H](CC(=O)O)NC(=O)[C@H](CCCCNC(=O)CCOCCOCCOCCOCCOCCOCCOCCOCCOCCOCCOCCOCCOCCOCCOCCOCCOCCC(=O)NCCCC[C@@H]2NC(=O)[C@H](C(C)C)NC(=O)[C@H](CCC(N)=O)NC(=O)[C@H](C(C)(C)C)NC(=O)[C@H](Cc3c[nH]c4ccccc34)NC(=O)[C@H](Cc3c[nH]c4ccccc34)NC(=O)CSC[C@@H](C(=O)NCC(N)=O)NC(=O)[C@H](CC(=O)O)NC(=O)[C@H](CCc3ccc(O)cc3)NC(=O)[C@H](Cc3ccccc3)NC(=O)[C@H](Cc3ccc(O)cc3)NC(=O)[C@H](CC(C)C)NC(=O)[C@H](CC(=O)O)NC(=O)[C@H](CC(=O)O)NC2=O)NC(=O)[C@H](C(C)C)NC(=O)[C@H](CCC(N)=O)NC(=O)[C@H](C(C)(C)C)NC(=O)[C@H](Cc2c[nH]c3ccccc23)NC(=O)[C@H](Cc2c[nH]c3ccccc23)NC(=O)CSC[C@@H](C(=O)NCC(N)=O)NC(=O)[C@H](CC(=O)O)NC(=O)[C@H](CCc2ccc(O)cc2)NC(=O)[C@H](Cc2ccccc2)NC(=O)[C@H](Cc2ccc(O)cc2)NC1=O [compound 26] (I: {CH2CO}-WW[Tle]QVKDDLYF[hTyr]DCG-NH2 / II: {CH2CO}-WW[Tle]QVKDDLYF[hTyr]DCG-NH2; linker I:6-II:6 via CO(CH2)2(OCH2CH2)17CO; thioether I:N-I:14, II:N-II:14) | 2-B (50% or more activity at 100 nM) |  |
| CC(C)C[C@@H]1NC(=O)[C@H](CC(=O)O)NC(=O)[C@H](CC(=O)O)NC(=O)[C@H](CCCCNC(=O)CCOCCOCCOCCOCCOCCOCCOCCOCCOCCOCCOCCOCCOCCOCCOCCOCCOCCC(=O)NCCCC[C@@H]2NC(=O)[C@H](C(C)C)NC(=O)[C@H](CC(=O)O)NC(=O)[C@H](C(C)(C)C)NC(=O)[C@H](Cc3c[nH]c4ccccc34)NC(=O)[C@H](Cc3c[nH]c4ccccc34)NC(=O)CSC[C@@H](C(=O)NCC(N)=O)NC(=O)[C@H](CC(=O)O)NC(=O)[C@H](C(C)C)NC(=O)[C@H](Cc3ccc(NC(=N)N)cc3)NC(=O)[C@H](Cc3ccc(O)cc3)NC(=O)[C@H](CC(C)C)NC(=O)[C@H](CC(=O)O)NC(=O)[C@H](CC(=O)O)NC2=O)NC(=O)[C@H](C(C)C)NC(=O)[C@H](CC(=O)O)NC(=O)[C@H](C(C)(C)C)NC(=O)[C@H](Cc2c[nH]c3ccccc23)NC(=O)[C@H](Cc2c[nH]c3ccccc23)NC(=O)CSC[C@@H](C(=O)NCC(N)=O)NC(=O)[C@H](CC(=O)O)NC(=O)[C@H](C(C)C)NC(=O)[C@H](Cc2ccc(NC(=N)N)cc2)NC(=O)[C@H](Cc2ccc(O)cc2)NC1=O [compound 43] (I: {CH2CO}-WW[Tle]DVKDDLY[Phe(4-guanidino)]VDCG-NH2 / II: {CH2CO}-WW[Tle]DVKDDLY[Phe(4-guanidino)]VDCG-NH2; linker I:6-II:6 via CO(CH2)2(OCH2CH2)17CO; thioether I:N-I:14, II:N-II:14) |  | 3-C (50% or more activity at 20 nM) |
| CC(C)C[C@@H]1NC(=O)[C@H](CC(=O)O)NC(=O)[C@H](CC(=O)O)NC(=O)[C@H](CCCCNC(=O)CCOCCOCCOCCOCCOCCOCCOCCOCCOCCOCCOCCOCCOCCOCCOCCOCCOCCC(=O)NCCCC[C@@H]2NC(=O)[C@H](C(C)C)NC(=O)[C@H](CC(=O)O)NC(=O)[C@H](C(C)(C)C)NC(=O)[C@H](Cc3c[nH]c4ccccc34)NC(=O)[C@H](Cc3c[nH]c4ccccc34)NC(=O)CSC[C@@H](C(=O)NCC(N)=O)NC(=O)[C@H](CC(=O)O)NC(=O)[C@H](CCc3ccc(O)cc3)NC(=O)[C@H](Cc3ccc(NC(=N)N)cc3)NC(=O)[C@H](Cc3ccc(O)cc3)NC(=O)[C@H](CC(C)C)NC(=O)[C@H](CC(=O)O)NC(=O)[C@H](CC(=O)O)NC2=O)NC(=O)[C@H](C(C)C)NC(=O)[C@H](CC(=O)O)NC(=O)[C@H](C(C)(C)C)NC(=O)[C@H](Cc2c[nH]c3ccccc23)NC(=O)[C@H](Cc2c[nH]c3ccccc23)NC(=O)CSC[C@@H](C(=O)NCC(N)=O)NC(=O)[C@H](CC(=O)O)NC(=O)[C@H](CCc2ccc(O)cc2)NC(=O)[C@H](Cc2ccc(NC(=N)N)cc2)NC(=O)[C@H](Cc2ccc(O)cc2)NC1=O [compound 45] (I: {CH2CO}-WW[Tle]DVKDDLY[Phe(4-guanidino)][hTyr]DCG-NH2 / II: {CH2CO}-WW[Tle]DVKDDLY[Phe(4-guanidino)][hTyr]DCG-NH2; linker I:6-II:6 via CO(CH2)2(OCH2CH2)17CO; thioether I:N-I:14, II:N-II:14) |  | 3-C (50% or more activity at 20 nM) |

The next lines start with the values.

| pVEGFR2 Assay Results [1] | pVEGFR2 Assay Results [2] | Compound |
| --- | --- | --- |
| 2-B (50% or more activity at 100 nM) |  | CC(C)C[C@@H]1NC(=O)[C@H](CC(=O)O)NC(=O)[C@H](CC(=O)O)NC(=O)[C@H](CCCCNC(=O)CCOCCOCCOCCOCCOCCOCCOCCOCCOCCOCCOCCOCCOCCOCCOCCOCCOCCC(=O)NCCCC[C@@H]2NC(=O)[C@H](C(C)C)NC(=O)[C@H](CC(=O)O)NC(=O)[C@H](C(C)(C)C)NC(=O)[C@H](Cc3c[nH]c4ccccc34)NC(=O)[C@H](Cc3ccc(OCC(=O)O)cc3)NC(=O)CSC[C@@H](C(=O)NCC(N)=O)NC(=O)[C@H](CC(=O)O)NC(=O)[C@H](CCc3ccc(O)cc3)NC(=O)[C@H](Cc3ccccc3)NC(=O)[C@H](Cc3ccc(O)cc3)NC(=O)[C@H](CC(C)C)NC(=O)[C@H](CC(=O)O)NC(=O)[C@H](CC(=O)O)NC2=O)NC(=O)[C@H](C(C)C)NC(=O)[C@H](CC(=O)O)NC(=O)[C@H](C(C)(C)C)NC(=O)[C@H](Cc2c[nH]c3ccccc23)NC(=O)[C@H](Cc2ccc(OCC(=O)O)cc2)NC(=O)CSC[C@@H](C(=O)NCC(N)=O)NC(=O)[C@H](CC(=O)O)NC(=O)[C@H](CCc2ccc(O)cc2)NC(=O)[C@H](Cc2ccccc2)NC(=O)[C@H](Cc2ccc(O)cc2)NC1=O [compound 24] (I: {CH2CO}-Y(Carboxymethyl)W[Tle]DVKDDLYF[hTyr]DCG-NH2 / II: {CH2CO}-Y(Carboxymethyl)W[Tle]DVKDDLYF[hTyr]DCG-NH2; linker I:6-II:6 via CO(CH2)2(OCH2CH2)17CO; thioether I:N-I:14, II:N-II:14) |
| 2-A (50% or more activity at 10 nM) |  | CC(C)C[C@@H]1NC(=O)[C@H](CC(=O)O)NC(=O)[C@H](CC(=O)O)NC(=O)[C@H](CCCCNC(=O)CCOCCOCCOCCOCCOCCOCCOCCOCCOCCOCCOCCOCCOCCOCCOCCOCCOCCC(=O)NCCCC[C@@H]2NC(=O)[C@H](C(C)C)NC(=O)[C@H](CC(=O)O)NC(=O)[C@H](C(C)(C)C)NC(=O)[C@H](Cc3c[nH]c4ccccc34)NC(=O)[C@H](Cc3c[nH]c4ccccc34)NC(=O)CSC[C@@H](C(=O)NCC(N)=O)NC(=O)[C@H](CC(=O)O)NC(=O)[C@H](CCc3ccncc3)NC(=O)[C@H](Cc3ccccc3)NC(=O)[C@H](Cc3ccc(O)cc3)NC(=O)[C@H](CC(C)C)NC(=O)[C@H](CC(=O)O)NC(=O)[C@H](CC(=O)O)NC2=O)NC(=O)[C@H](C(C)C)NC(=O)[C@H](CC(=O)O)NC(=O)[C@H](C(C)(C)C)NC(=O)[C@H](Cc2c[nH]c3ccccc23)NC(=O)[C@H](Cc2c[nH]c3ccccc23)NC(=O)CSC[C@@H](C(=O)NCC(N)=O)NC(=O)[C@H](CC(=O)O)NC(=O)[C@H](CCc2ccncc2)NC(=O)[C@H](Cc2ccccc2)NC(=O)[C@H](Cc2ccc(O)cc2)NC1=O [compound 32] (I: {CH2CO}-WW[Tle]DVKDDLYF[h4Pal]DCG-NH2 / II: {CH2CO}-WW[Tle]DVKDDLYF[h4Pal]DCG-NH2; linker I:6-II:6 via CO(CH2)2(OCH2CH2)17CO; thioether I:N-I:14, II:N-II:14) |
